Experimental data as given in US9198896B2 (priority 2006, dated 2015).
“Also recorded” adds a separate entry of the source. Where two headings read alike, the source gives them in different places. Marks after values point to notes of the source that are not given here.

Key:
[1] = Long-term (chronic) toxicity study, mice; conditions: multiple dose, observed up to 90 days after treatment
Description: Long-term (chronic) toxicity study: Mode of treatment and dilution by either water or normal saline were identical to acute toxicity study. Chronic toxicity study was made with four species of animals: mice, rat, rabbit and dog.
Mice. For experiment with these animals, 4 batches of mice were used per mode of treatment. Each batch contained 6 animals either male or female weighing 18-25 g. […] In all the cases, control group received water or normal saline in respective manner.
Total number of animals in each group including control and different modes of treatment: 6 (mice), 5 (rats) and 4 (rabbits). Each set of experiment was repeated 4 times for mice and rats and for rabbits 2 times respectively. […] In Table 3, αWeight of animals for mice and rats in gm and for rabbit in Kg.

[2] = for Blood cells, remarks: dog and bitch
Description: Hemoglobin was estimated by reacting the blood sample with Drabkin's reagent to convert it to cyanmethemoglobin and measuring the absorbance at 540 nm. Urea was estimated by reacting it with hot acidic diacetylmonoxime in the presence of semicarbarzide and measuring the rose-purple color at 525 nm. Glucose was estimated by glucose oxidase method in the presence of peroxidase and measuring the absorbance of the colored complex of hydroxybenzoate and 4-aminophenazone at 510 nm. Creatinine was measured by reacting it with alkaline picrate and measuring the absorbance of the red-colored complex at 520 nm. Alkaline phosphatase was assayed by its ability to convert phenyl phosphate to inorganic phosphate and phenol. The later reacts with 4-aminoantipyrine to form an orange-red-colored complex, which was measured at 510 nm. Aspartate transaminase was measured by reacting the reaction product oxaloacetate (from the substrate 1-aspartic acid) with 2,4-dinitrophenyl hydrazine. The hydrazone thus formed gives a characteristic brown color when placed in an alkaline medium and was measured at 505 nm. Alanine transaminase was assayed similarly by 2,4-dinitrophenylhydrazine-alkali color reaction; the substrate and products are 1-alanine and pyruvate respectively.
Long-term toxicity test with non-rodents (dog and bitch). Total of 6 animals (4 dogs and 2 bitches) were used for this experiment. The animals were 3-4 months old. Three different modes of treatment were used; two animals received the formulation orally, the other two by intravenous injection and the other two by subcutaneous injection. The total period of treatment was for 4 weeks (5 days per week).
Dogs. For biochemical analysis, blood samples from each individual animal were collected and processed similarly to that of rats. The samples were collected just before the treatment commenced, in mid-phase of the treatment and 7 days after completion of the treatment. The samples were analyzed for the activities of several enzymes and metabolite contents as per the methods described in the respective assay kit and are briefly mentioned before. Hemoglobin estimation and cell count were done with an uncoagulated sample.
However, subcutaneous injections appeared to be painful. The biochemical tests and some hematological studies were performed with blood of the animals, the results of which are presented in the Tables.

[3] = test system: EAC cells; assay: Increase in body weight of EAC cell-inoculated mice; type: in vivo; conditions: Table 10
Experimental: Increase in body weight: For this experiment, mice were weighed periodically during and after the therapy. The results are expressed as percentage increase in the body weight using the following relationship: percent increase equals
Ehrlich ascites carcinoma bearing mice were treated intraperitonially with different drug combinations in normal saline to observe their effect on body weight (table 10) and life span (table 11). Mice in the control group were similarly treated intraperitonially only with normal saline.
The day on which 10^5 EAC cells were inoculated into each mouse was considered as day 0. The treatment started from day 3. […] 6 animals received a particular mode of treatment. Control group received only normal saline. […] Each set of experiment was repeated 4 times.

[4] = test system: EAC cells; assay: as above; type: in vivo
[5] = Fertility study; conditions: oral or intravenous, dose and schedule as chronic toxicity test

CC(=O)C=O [methylglyoxal]
death and toxic effect (physical and behavioral) [1]: No death and toxic effect | Blood cells, remarks ([2]; After treatment): Mild hypochromia; also recorded: No abnormal cells | Blood cells, remarks ([2]; Mid-phase treatment): Mild hypochromia; also recorded: No abnormal cells | Basophils ([2]; dog, in vivo): 0% | general physical conditions and behavioral pattern vs control ([2]; dog, long-term treatment): no abnormalities | death ([2]; dogs, during and after the treatment (90 days)): no death occurred | Percent increase in body weight ([3]; MG 30 mg/kg/day ip, Day 15): 15.8 ± 1.3% | Percent increase in body weight ([3]; MG 30 mg/kg/day ip, Day 25): 30.0 ± 2.9% | Percent increase in body weight ([3]; MG 30 mg/kg/day ip, Day 35, 2 animals survived out of 6): 38.8 ± 3.0^b % | Percent increase in body weight ([3]; MG 100 mg/kg body weight/day ip, Day 15): 8.0 ± 0.7% | Percent increase in body weight ([3]; MG 100 mg/kg body weight/day ip, Day 20): 10.0 ± 1.2% | Percent increase in body weight ([3]; MG 100 mg/kg body weight/day ip, Day 25): 11.0 ± 1.0% | Percent increase in body weight ([4]; Table 8, MG 30 mg/kg/day, Day 15): 15.8 ± 1.3% | Percent increase in body weight ([4]; Table 8, MG 30 mg/kg/day, Day 20): 19.0 ± 1.6% | Percent increase in body weight ([4]; Table 8, MG 30 mg/kg/day, Day 25): 30.0 ± 2.9% | Percent increase in body weight ([4]; Table 8, MG 30 mg/kg/day, Day 30): 32.9 ± 3.0% | Percent increase in body weight ([4]; Table 8, MG 30 mg/kg/day, Day 35, 2 animals survived out of 6): 38.8 ± 3.0^b % | Percent increase in body weight ([4]; Table 8, MG 100 mg/kg/day, Day 15): 8.0 ± 0.7% | Percent increase in body weight ([4]; Table 8, MG 100 mg/kg/day, Day 20): 10.0 ± 1.2% | Percent increase in body weight ([4]; Table 8, MG 100 mg/kg/day, Day 25): 11.0 ± 1.0% | Percent increase in body weight ([4]; Table 8, MG 100 mg/kg/day, Day 30): 11.2 ± 0.9% | Percent increase in body weight ([4]; Table 8, MG 100 mg/kg/day, Day 35): 11.2 ± 1.1% | Percent increase in body weight ([4]; Table 10, MG 30 mg/kg/day ip, Day 20): 19.0 ± 1.6% | Percent increase in body weight ([4]; Table 10, MG 30 mg/kg/day ip, Day 30): 32.9 ± 3.0% | Percent increase in body weight ([4]; Table 10, MG 100 mg/kg body weight/day ip, Day 30): 11.2 ± 0.9% | Percent increase in body weight ([4]; Table 10, MG 100 mg/kg body weight/day ip, Day 35): 11.2 ± 1.1% | abnormalities among the litters [5]: Neither deformation of organs nor any other abnormalities
